{"source": "patent US4354039A", "about": "“Chlorocitric acids” (Hoffmann-La Roche Inc., priority 1981, dated 1982)", "key": {"[1]": {"assay": "Effect on stomach emptying, [14C] glucose load (Example 25)", "assay_type": "in vivo, Rats", "settings": "0.33 mmoles/kg oral, 60 min after [14C] glucose load", "procedure": "Rats were trained to consume a 3 hr 70% glucose meal from 8 a.m. to 11 a.m. daily. On the experimental day, compounds were administered orally by intubation 30 min before a [^14 C] glucose load was given also by intubation. […] Sixty minutes later the rats were killed by decapitation; blood and stomachs were collected on ice.\nData are expressed as follows: dpm×10^3 per ml of serum and dpm×10^3 per stomach."}, "[2]": {"tested_on": "isolated rat hepatocytes", "assay": "Fatty acid and cholesterol synthesis and CO2 production in isolated hepatocytes (Example 23)", "assay_type": "cell-based, Female Charles River rats", "settings": "2 mM, 60 min, 37° C.; for activity at 2000 µM: Rattus norvegicus, Hepatocyte, 1 h", "procedure": "Female Charles River rats were fasted 48 hr, then meal-fed a 1% corn oil, 70% glucose diet for 7 to 14 days from 8 to 11 a.m. The isolated rat hepatocytes were prepared by perfusing the liver in situ. The hepatocytes were incubated in an oscillating water bath at 37° C. for 60 min. […] All incubations were done in triplicate and all experiments were repeated at least twice. […] The contents of the center well were transferred to scintillation counting fluid and ^14 CO2 content was determined. […] The media was then acidified, extracted with hexane, and the extract counted (to determine the rate of lipogenesis). The conversion of ^3 H2 O and [^14 C]alanine into fatty acids or sterols was determined in a PDS/3, Mark II liquid scintillation counting system."}, "[3]": {"assay": "Food intake in dogs, pyramiding oral doses (Examples 26 and 27)", "assay_type": "in vivo, beagle dogs", "procedure": "Twelve beagle dogs of both sexes weighing 7.6-12.2 kg were used for this test. The test compounds were contained in gelatin capsules for oral administration to two dogs of each sex. The animals were weighed and food consumption calculated daily excluding weekends throughout the test period. Each animal received 800 grams of diet daily consisting of 400 grams of Wayne pellet dog food mixed with 400 ml distilled water. The animals received pyramiding oral doses of the test compound over the three week period. On Monday and Tuesday of the first week the animals were weighed and food consumption was recorded (control). […] Doses of 30, 100 and 300 mg/kg were administered on Monday, Wednesday and Friday respectively during the second week. A final dose of 1000 mg/kg was administered on Monday of the third week.\nFood intake was determined by the procedure at pyramiding doses described in EXAMPLE 26."}, "[4]": {"assay": "Effect of stereoisomers on food consumption of meal-fed rats (Example 14)", "assay_type": "in vivo, Charles River female rats", "procedure": "Animals were fasted 48 hr, then meal-fed the 70% glucose diet described by A. C. […] Following 5 to 12 days alimentation on the meal-feeding regimen, rats were dosed with the appropriate compounds orally by intubation 1/2 hr before the 3 hr meal. Food cups were weighed immediately after the meal. The control group consisted of 5 to 10 rats, while the experimental group consisted of 4 to 6 rats."}, "[5]": {"assay": "Anorectic activities of stereoisomers, 3-day food consumption and body weight gain (Example 16)", "assay_type": "in vivo, Charles River female rats", "settings": "1.32 mmoles/kg oral, 3 days", "procedure": "Charles River female rats (Charles River Breeding Laboratories, Wilmington, Mass.), weighing 196 to 210 g, were individually housed in wire-bottomed cages in a temperature-regulated (22° C.) light-controlled room (12 hr light, 6 a.m. to 6 p.m. and 12 hr dark, 6 p.m. to 6 a.m.). Animals were fasted 48 hr, then meal-fed a 70% glucose diet from 8 to 11 a.m. Following 5 to 12 days alimentation on the meal-feeding regimen, rats were dosed with the appropriate compounds orally by intubation 1/2 hr before the 3 hr meal for 3 days. The total food consumption and body weight gained during the 3 day period were determined. The control group consisted of 16 rats, while the experimental group consists of 8 rats."}, "[6]": {"settings": "test day 8, dose 100 mg/kg oral"}, "[7]": {"settings": "test day 10, dose 300 mg/kg oral"}, "[8]": {"settings": "test day 13, dose 1000 mg/kg oral"}}, "note": "Like-named read-outs stand apart in the source and are kept apart here."}
{"smiles": "O=C(O)C[C@](O)(C(=O)O)[C@H](Cl)C(=O)O", "note": "[(+)-threo-Chlorocitric acid]", "values": [{"measurement": "Serum, % of control", "setting": "[1]", "value": "60 % of control"}, {"measurement": "Stomach Contents, % of control", "setting": "[1]", "value": "220 % of control"}, {"measurement": "CO2 Production, [14C]alanine converted", "setting": "[2]; 2000 µM", "value": "100 % of control"}, {"measurement": "Cholesterol Synthesis, [14C]alanine converted", "setting": "[2]; 2000 µM", "value": "88 % of control"}, {"measurement": "Fatty Acid Synthesis, 3H2O converted", "setting": "[2]; 2000 µM", "value": "94 % of control"}, {"measurement": "Fatty Acid Synthesis, [14C]alanine converted", "setting": "[2]; 2000 µM", "value": "97 % of control"}, {"measurement": "activity at 2000 µM", "setting": "[2]; read-out: CO2 Production, [14C]alanine converted", "value": 114, "unit": "%"}, {"measurement": "activity at 2000 µM", "setting": "[2]; read-out: Cholesterol Synthesis, [14C]alanine converted", "value": 69, "unit": "%"}, {"measurement": "activity at 2000 µM", "setting": "[2]; read-out: Fatty Acid Synthesis, 3H2O converted", "value": 93, "unit": "%"}, {"measurement": "activity at 2000 µM", "setting": "[2]; read-out: Fatty Acid Synthesis, [14C]alanine converted", "value": 102, "unit": "%"}, {"measurement": "Food Consumption", "setting": "[3]; test day 1, dose 3 mg/kg oral", "value": "430 ± 109", "unit": "g"}, {"measurement": "Food Consumption, % of control", "setting": "[3]; test day 1, dose 3 mg/kg oral", "value": "70 % of control"}, {"measurement": "Food Consumption", "setting": "[3]; test day 2, no dose", "value": "502 ± 109", "unit": "g"}, {"measurement": "Food Consumption, % of control", "setting": "[3]; test day 2, no dose", "value": "82 % of control"}, {"measurement": "Food Consumption", "setting": "[3]; test day 3, dose 10 mg/kg oral", "value": "367 ± 114", "unit": "g"}, {"measurement": "Food Consumption, % of control", "setting": "[3]; test day 3, dose 10 mg/kg oral", "value": "60 % of control"}, {"measurement": "Food Consumption", "setting": "[3]; test day 6, dose 30 mg/kg oral", "value": "629 ± 64", "unit": "g"}, {"measurement": "Food Consumption, % of control", "setting": "[3]; test day 6, dose 30 mg/kg oral", "value": "103 % of control"}, {"measurement": "Food Consumption", "setting": "[3]; test day 7, no dose", "value": "397 ± 87", "unit": "g"}, {"measurement": "Food Consumption, % of control", "setting": "[3]; test day 7, no dose", "value": "65 % of control"}, {"measurement": "Food Consumption", "setting": "[3]; [6]", "value": "477 ± 75", "unit": "g"}, {"measurement": "Food Consumption, % of control", "setting": "[3]; [6]", "value": "78 % of control"}, {"measurement": "Food Consumption", "setting": "[3]; test day 9, no dose", "value": "585 ± 69", "unit": "g"}, {"measurement": "Food Consumption, % of control", "setting": "[3]; test day 9, no dose", "value": "96 % of control"}, {"measurement": "Food Consumption", "setting": "[3]; [7]", "value": "436 ± 60", "unit": "g"}, {"measurement": "Food Consumption, % of control", "setting": "[3]; [7]", "value": "71 % of control"}, {"measurement": "Food Consumption", "setting": "[3]; [8]", "value": "433 ± 125", "unit": "g"}, {"measurement": "Food Consumption, % of control", "setting": "[3]; [8]", "value": "71 % of control"}, {"measurement": "Food Consumption", "setting": "[3]; test day 14, no dose", "value": "518 ± 19", "unit": "g"}, {"measurement": "Food Consumption, % of control", "setting": "[3]; test day 14, no dose", "value": "85 % of control"}, {"measurement": "Food Consumption", "setting": "[3]; test day 15, no dose", "value": "622 ± 69", "unit": "g"}, {"measurement": "Food Consumption, % of control", "setting": "[3]; test day 15, no dose", "value": "102 % of control"}, {"measurement": "Food Consumption", "setting": "[3]; test day 16, no dose", "value": "564 ± 106", "unit": "g"}, {"measurement": "Food Consumption, % of control", "setting": "[3]; test day 16, no dose", "value": "92 % of control"}, {"measurement": "Food Consumption", "setting": "[3]; test day 17, no dose", "value": "597 ± 36", "unit": "g"}, {"measurement": "Food Consumption, % of control", "setting": "[3]; test day 17, no dose", "value": "98 % of control"}, {"measurement": "Food Consumption", "setting": "[3]; test day 21, no dose", "value": "578 ± 79", "unit": "g"}, {"measurement": "Food Consumption, % of control", "setting": "[3]; test day 21, no dose", "value": "95 % of control"}, {"measurement": "Food Consumption", "setting": "[3]; test day 22, no dose", "value": "668 ± 57", "unit": "g"}, {"measurement": "Food Consumption, % of control", "setting": "[3]; test day 22, no dose", "value": "110 % of control"}, {"measurement": "Food Consumption", "setting": "[3]; test day 23, no dose", "value": "516 ± 66", "unit": "g"}, {"measurement": "Food Consumption, % of control", "setting": "[3]; test day 23, no dose", "value": "85 % of control"}, {"measurement": "Food Consumption", "setting": "[3]; test day 24, no dose", "value": "539 ± 39", "unit": "g"}, {"measurement": "Food Consumption, % of control", "setting": "[3]; test day 24, no dose", "value": "88 % of control"}, {"measurement": "Food Consumption", "setting": "[3]; test day 27, no dose", "value": "479 ± 92", "unit": "g"}, {"measurement": "Food Consumption, % of control", "setting": "[3]; test day 27, no dose", "value": "79 % of control"}, {"measurement": "Food Consumption", "setting": "[3]; test day 28, no dose", "value": "710 ± 91", "unit": "g"}, {"measurement": "Food Consumption, % of control", "setting": "[3]; test day 28, no dose", "value": "116 % of control"}, {"measurement": "Food Consumption, % of control", "setting": "[4]; 0.66 mmoles/kg oral", "value": "83 % of control"}, {"measurement": "Food Consumption, % of control", "setting": "[4]; 2.63 mmoles/kg oral", "value": "38 % of control"}, {"measurement": "3-Day Body Weight Gain, % of initial body weight", "setting": "[5]", "value": "-1.7 % of initial body weight"}, {"measurement": "3-Day Food Consumption, % of control", "setting": "[5]", "value": "93 % of control"}]}
